Assay results: PubChem BioAssay (NCI)
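In this assay, cells in 96-well plates receive the compound at five concentrations for 48 hours. Endpoints are linearly interpolated between the surrounding concentrations. At the GI50, growth is halved. TGI: total growth inhibition.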

Tests used:
Test in all cases: NCI-60 cell line screen, 48 h
[1] = system: UACC-62 melanoma
[2] = system: SNB-75 CNS
[3] = system: COLO 205 colon
[4] = system: SF-295 CNS
[5] = system: HOP-92 NSCLC
[6] = system: OVCAR-8 ovarian
[7] = system: SW-620 colon
[8] = system: SK-MEL-28 melanoma
[9] = system: A498 renal
[10] = system: SK-MEL-5 melanoma

SMILES | GI50 [1] [µM] | TGI [1] [µM] | GI50 [2] [µM] | TGI [2] [µM] | GI50 [3] [µM] | TGI [3] [µM] | GI50 [4] [µM] | TGI [4] [µM] | GI50 [5] [µM] | TGI [5] [µM] | GI50 [6] [µM] | TGI [6] [µM] | GI50 [7] [µM] | TGI [7] [µM] | GI50 [8] [µM] | TGI [8] [µM] | GI50 [9] [µM] | TGI [9] [µM] | GI50 [10] [µM] | TGI [10] [µM]
COc1cc(NS(=O)(=O)c2ccc(-c3cnc(C4CC4)o3)cc2)ccc1F | 0.313 | 13.8 | 0.158 | 0.604 | 0.506 | 9.57 | 0.205 | 1.46 | 0.579 | 13.1 | 0.745 | 56.5 | 0.287 | > 61.3 | 1.77 | 23.5 | 0.0833 | 0.892 | 0.638 | 13.1
FC(F)(F)c1nc(-c2ccccc2)oc1Sc1nnc(Sc2oc(-c3ccccc3)nc2C(F)(F)F)s1 | – | > 65.8 | – | > 100 | – | > 69.8 | – | > 100 | – | 63.4 | – | 59.8 | – | > 100 | – | > 93.8 | – | > 100 | – | 33.9
CN1C(=O)c2ccccc2NC(=O)C12O[C@@H]2c1cccc(O)c1 (some centres undefined) | – | > 100 | – | > 100 | – | > 100 | – | > 100 | – | > 100 | – | > 100 | – | > 100 | – | > 100 | – | > 100 | – | > 100
COc1cc2c(c(OC)c1OC)-c1c(cc3c(c1OC)OCO3)C1OC2C(C)C1C (centres undefined) (tested in a mixture with another compound) | – | > 100 | – | > 100 | – | > 100 | – | > 100 | – | > 100 | – | > 100 | – | > 100 | – | > 100 | – | > 100 | – | > 100
Cc1nc2ccccc2c(=O)n1-c1ccccc1F | – | > 100 | – | > 100 | – | > 100 | – | > 100 | – | > 100 | – | > 100 | – | > 100 | – | > 100 | – | > 100 | – | > 100
COc1cc2c3c(n(CCNCCCNCCn4c5c(c6cc(OC)c(OC)cc6c4=O)C(=O)c4ccccc4-5)c(=O)c2cc1OC)-c1ccccc1C3=O | 1.2 | 2.69 | 1.6 | 6.81 | 0.121 | 1.01 | 0.105 | 2.11 | 0.0656 | 0.556 | 0.0355 | 5.82 | 0.261 | 11.8 | 1.78 | 5.07 | 3.12 | 14.5 | 4.93 | 22.5
COC(=O)[C@H](Cc1c[nH]c2ccccc12)NC(=O)[C@@H](OC)[C@@H]1Cc2cc3cc(OC4CC(OC5CC(O)C(O)C(C)O5)C(O)C(C)O4)c(C)c(O)c3c(O)c2C(=O)[C@H]1OC1CC(OC2CC(OC3CC(C)(O)C(O)C(C)O3)C(O)C(C)O2)C(O)C(C)O1 (some centres undefined) | 0.00361 | 0.00983 | 0.00465 | 0.0244 | 0.00366 | 0.00882 | 0.0112 | 3.21 | 0.0039 | 0.0333 | 0.0097 | > 16.5 | 0.00863 | – | 0.00424 | 0.0193 | 0.00517 | 0.0249 | 0.00621 | 0.0308
CCOc1ccc2c(c1)[n+]([O-])c(-c1nc3ccccc3s1)c(N)[n+]2[O-] | – | > 100 | – | > 100 | – | > 100 | – | > 100 | – | 70.1 | – | > 100 | – | > 100 | – | > 100 | – | > 100 | – | 93.8
COc1ccc(C2SCC(=O)N2NC(=O)Nc2c(C)nc3ccccn23)cc1 (centres undefined) | 39.6 | > 100 | 4.76 | 19.9 | > 100 | > 100 | 24.5 | 57.3 | 16.6 | 37.5 | 40.2 | > 100 | > 100 | > 100 | > 100 | > 100 | 27.8 | 60.3 | > 100 | > 100
c1cc2c(ncc3cscc32)s1 | – | > 31.6 | – | > 100 | – | > 100 | – | > 100 | – | > 100 | – | > 100 | – | > 100 | – | > 100 | – | > 100 | – | > 100
OC/C=C(\I)CCCOCOCc1ccccc1 | – | > 100 | – | > 100 | – | > 100 | – | > 100 | – | 53.4 | – | > 100 | – | > 100 | – | > 100 | – | > 100 | – | 54.5
Cc1ccc2c(c1)CN(C(=O)CCC(=O)OCc1ccccc1)c1ccc(C)cc1CN2C(=O)CCC(=O)OCc1ccccc1 | – | > 100 | – | 62.6 | – | > 100 | – | > 100 | – | > 100 | – | > 100 | – | > 100 | – | > 100 | – | > 100 | – | > 100
